From ChEMBL document CHEMBL2150847, “Scaffold hopping strategy toward original pyrazolines as selective CB₂ receptor ligands” (Eur J Med Chem, 2012) come the findings set out here.

The Ki is the equilibrium dissociation constant of an inhibitor or competing ligand from its target. By Emax is commonly meant the size of the effect at its maximum, as opposed to the concentration needed. Broadly, the EC50 is the concentration needed to bring the measured effect to its halfway point.

Test [1] addresses Cannabinoid receptor 1 (Homo sapiens, UniProt P21554). As to the kind of experiment: Displacement of [3H]CP55940 from human CB1 receptor expressed in CHO cell membranes after 1 hr by scintillation counting. A general note: In a radioligand displacement assay an active substance lowers the binding of a labelled ligand.
In test [2] the target is T1, Cannabinoid receptor 2 (Homo sapiens, UniProt P34972). As to the kind of experiment: Displacement of [3H]CP55940 from human CB2 receptor expressed in CHO cell membranes after 1 hr by scintillation counting.
Test [3] has as its target T1, Cannabinoid receptor 2. As to the kind of experiment: Agonist activity at human CB2 receptor expressed in CHO cell membranes after 1 hr by [35S]GTPgammaS binding assay relative to baseline. In kind it is functional. For orientation: GTPγS is a poorly hydrolysed GTP analogue; its binding reports G protein activation.
Test [4] is filed under the species Homo sapiens. Description: Selectivity ratio of Ki for human CB1 receptor to Ki for human CB2 receptor.
The target in test [5] is T1, Cannabinoid receptor 2. Description: Agonist activity at human CB2 receptor expressed in CHO cell membranes after 1 hr by [35S]GTPgammaS binding assay. The format is functional.
In test [6] the target is T1, Cannabinoid receptor 2. Description: Antagonist activity at human CB2 receptor expressed in CHO cell membranes after 1 hr by [35S]GTPgammaS binding assay. In kind it is functional.

Activity calls are given as the source filed them. No cut-off for these calls is given here. A value given as a limit tells only on which side of the number the result lay.

T1 sequence (P34972 whole entry): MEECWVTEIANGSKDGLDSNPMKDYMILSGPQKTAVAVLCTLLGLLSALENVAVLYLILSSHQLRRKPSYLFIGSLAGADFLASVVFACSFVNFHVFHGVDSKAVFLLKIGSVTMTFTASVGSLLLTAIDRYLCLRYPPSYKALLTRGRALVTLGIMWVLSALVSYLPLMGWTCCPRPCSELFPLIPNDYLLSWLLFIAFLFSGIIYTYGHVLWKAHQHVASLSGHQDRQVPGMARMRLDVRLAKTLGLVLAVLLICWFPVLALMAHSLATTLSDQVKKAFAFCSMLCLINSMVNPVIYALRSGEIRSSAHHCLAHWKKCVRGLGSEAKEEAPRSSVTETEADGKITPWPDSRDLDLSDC
Cannabinoid receptor 1, sequence (P21554 whole entry): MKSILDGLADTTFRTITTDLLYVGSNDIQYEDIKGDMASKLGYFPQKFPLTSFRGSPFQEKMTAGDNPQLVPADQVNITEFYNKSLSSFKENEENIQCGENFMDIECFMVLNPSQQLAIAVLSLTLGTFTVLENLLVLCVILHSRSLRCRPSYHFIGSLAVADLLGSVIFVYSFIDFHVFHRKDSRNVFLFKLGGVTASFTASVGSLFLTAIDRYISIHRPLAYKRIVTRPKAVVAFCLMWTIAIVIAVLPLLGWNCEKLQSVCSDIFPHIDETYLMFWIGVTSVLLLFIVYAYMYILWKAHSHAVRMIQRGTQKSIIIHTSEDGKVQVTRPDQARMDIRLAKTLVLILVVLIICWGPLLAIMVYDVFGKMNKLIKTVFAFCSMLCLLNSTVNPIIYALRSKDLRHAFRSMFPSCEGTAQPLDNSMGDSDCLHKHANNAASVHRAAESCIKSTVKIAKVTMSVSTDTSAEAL

In the case of `O=C(Nc1ccccc1)N1CC(Cc2ccccc2)C(c2ccc(Cl)cc2)=N1` (configuration not stated), the inhibitory constant (Ki) in test [1] and in test [2] was over 3 µM each time.

For the molecule `Cc1cccc(C2=NN(C(=O)Nc3ccccc3)CC2Cc2ccccc2)c1` (configuration not stated), the Ki in test [1] and in test [2] was over 3 µM each time.

With `O=C(NC1CCCCC1)N1CC(Cc2ccccc2)C(c2ccc(Cl)cc2)=N1` (configuration not stated), the inhibitory constant (Ki) in test [1] and in test [2] was over 3 µM throughout.

Molecule `O=C(NC1CCCCC1)N1CC(Cc2ccccc2)C(c2ccccc2)=N1` (configuration not stated) came in with a maximal effect (Emax) in test [3] of 136%. In addition, the Ratio Ki in test [4] is over 6. In addition, the inhibition constant (Ki) was over 3 µM in test [1] and 0.504 µM in test [2]. This molecule also gave a concentration for a half-maximal effect (EC50) in test [5] of 0.297 µM.

With `Cc1cc(C2=NN(C(=O)NC3C4(C)CCC(C4)C3(C)C)CC2Cc2ccccc2)ccc1Cl` (configuration not stated), the Emax in test [3] is 183%. The Ratio Ki in test [4] is over 4. The figures for the Ki in test [1] and in test [2] were over 1 µM and 0.689 µM, respectively. In test [5], this molecule displayed a 50% effective concentration (EC50) of 0.749 µM.

Turning to `O=C(Nc1ccccc1)N1CC(Cc2ccccc2)C(c2ccccc2)=N1` (configuration not stated), the inhibition constant (Ki) in test [1] and in test [2] was over 3 µM in each case.

Turning to `CC(=O)N1CC(Cc2ccccc2)C(c2ccccc2)=N1` (configuration not stated), the Ki in test [1] and in test [2] was over 3 µM each time.

Regarding `Cc1cc(C2=NN(C(=O)NC3CCCCC3)CC2C2CCCC2)ccc1Cl` (configuration not stated), the Ratio Ki in test [4] came out at 1.2. Besides, the Ki is over 3 µM in test [1] and 3.64 µM in test [2]. For the same molecule, in test [6], the outcome was Active.

With `Cc1cc(C2=NN(C(=O)NC3CCCCC3)CC2Cc2ccccc2)ccc1Cl` (configuration not stated), the Ki in test [1] was over 3 µM; in test [2] it was over 1 µM.

Consider `Cc1cc(C2=NN(C(=O)Nc3ccccc3)CC2Cc2ccccc2)ccc1Cl` (configuration not stated), for which the inhibition constant Ki in test [1] and in test [2] was over 3 µM throughout.

`Cc1cccc(C2=NN(C(=O)NC3CCCCC3)CC2Cc2ccccc2)c1` (configuration not stated): the inhibition constant (Ki) in test [1] and in test [2] was over 3 µM throughout.

With `Cc1ccc(CC2CN(C(=O)NC3C4(C)CCC(C4)C3(C)C)N=C2c2ccc(Cl)c(C)c2)cc1` (configuration not stated), the maximal response (Emax) in test [3] stood at 163%. In addition, in test [4], the Ratio Ki was over 4. In addition, the values for the Ki in test [1] and in test [2] were over 1 µM and 0.251 µM, respectively. A half-maximal response in test [5] (EC50) required 0.191 µM.

Consider `Cc1ccc(CC2CN(C(=O)Nc3ccccc3)N=C2c2ccc(Cl)c(C)c2)cc1` (configuration not stated), for which the values for the Ki in test [1] and in test [2] were over 3 µM and over 1 µM, respectively.

As for `Cc1ccc(CC2CN(C(=O)NC3CCCCC3)N=C2c2ccc(Cl)c(C)c2)cc1` (configuration not stated), the Emax in test [3] stood at 187%. Also, in test [4], the Ratio Ki was over 8. Besides, the Ki in test [1] is over 3 µM; in test [2], 0.385 µM. Besides, the EC50 in test [5] is 0.371 µM.
